One assay concerns the target EGFR Del19/C797S (Homo sapiens, UniProt P00533, C797S/DEL746-750). As to the kind of experiment: Biochemical EGFR kinase inhibition assay (Lance Ultra TR-FRET), double mutant del19/C797S. The method, boiled down: (§1)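 Enzyme reactions lasted 1 hour at room temperature with test compounds between 0.003 and 10 μM, followed by 10 mM EDTA quench.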
(In general: TR-FRET usually uses a lanthanide donor and a delayed reading to cut background.)

The target in another assay is EGFR L858R/T790M/C797S (Homo sapiens, UniProt P00533, C797S/L858R/T790M). As to the kind of experiment: Biochemical EGFR kinase inhibition assay (Lance Ultra TR-FRET), triple mutant L858R/T790M/C797S. The method, boiled down: as §1
The next assay concerns the target EGFR wildtype (WT) (Homo sapiens, UniProt P00533). In words: Biochemical EGFR kinase inhibition assay (Lance Ultra TR-FRET), wildtype. An outline of the steps: as §1
A further assay has as its target EGFR Del19/T790M/C797S (Homo sapiens, UniProt P00533, C797S/DEL746-750/T790M). As to the kind of experiment: Biochemical EGFR kinase inhibition assay (Lance Ultra TR-FRET), triple mutant del19/T790M/C797S. An outline of the steps: as §1
Another assay has as its target EGFR L858R/C797S (Homo sapiens, UniProt P00533, C797S/L858R). In words: Biochemical EGFR kinase inhibition assay (Lance Ultra TR-FRET), double mutant L858R/C797S. The method, boiled down:
as §1

Setting [1] is: IC50 Del19/C797S (nM), 100 μM ATP.
The mark [2] stands for this setting: Km ATP, read-out: IC50 Del19/C797S (nM) Km ATP.
[3] abbreviates: IC50 L858R/T790M/C797S (nM), 100 μM ATP.
Where [4] appears, read: Km ATP, read-out: IC50 L858R/T790M/C797S (nM) Km ATP.
Setting [5] is: Km ATP, read-out: IC50 WT (nM) Km ATP.
The mark [6] stands for this setting: IC50 Del19/T790M/C797S (nM), 100 μM ATP.
Setting [7] is: Km ATP, read-out: IC50 Del19/T790M/C797S (nM) Km ATP.
Where [8] appears, read: IC50 L858R/C797S (nM), 100 μM ATP.
Setting [9] is: Km ATP, read-out: IC50 L858R/C797S (nM) Km ATP.

Structures are written as SMILES. Read-outs that look alike come from different tables or passages of the source.

Chain of EGFR wildtype (WT) (P00533 25-1210): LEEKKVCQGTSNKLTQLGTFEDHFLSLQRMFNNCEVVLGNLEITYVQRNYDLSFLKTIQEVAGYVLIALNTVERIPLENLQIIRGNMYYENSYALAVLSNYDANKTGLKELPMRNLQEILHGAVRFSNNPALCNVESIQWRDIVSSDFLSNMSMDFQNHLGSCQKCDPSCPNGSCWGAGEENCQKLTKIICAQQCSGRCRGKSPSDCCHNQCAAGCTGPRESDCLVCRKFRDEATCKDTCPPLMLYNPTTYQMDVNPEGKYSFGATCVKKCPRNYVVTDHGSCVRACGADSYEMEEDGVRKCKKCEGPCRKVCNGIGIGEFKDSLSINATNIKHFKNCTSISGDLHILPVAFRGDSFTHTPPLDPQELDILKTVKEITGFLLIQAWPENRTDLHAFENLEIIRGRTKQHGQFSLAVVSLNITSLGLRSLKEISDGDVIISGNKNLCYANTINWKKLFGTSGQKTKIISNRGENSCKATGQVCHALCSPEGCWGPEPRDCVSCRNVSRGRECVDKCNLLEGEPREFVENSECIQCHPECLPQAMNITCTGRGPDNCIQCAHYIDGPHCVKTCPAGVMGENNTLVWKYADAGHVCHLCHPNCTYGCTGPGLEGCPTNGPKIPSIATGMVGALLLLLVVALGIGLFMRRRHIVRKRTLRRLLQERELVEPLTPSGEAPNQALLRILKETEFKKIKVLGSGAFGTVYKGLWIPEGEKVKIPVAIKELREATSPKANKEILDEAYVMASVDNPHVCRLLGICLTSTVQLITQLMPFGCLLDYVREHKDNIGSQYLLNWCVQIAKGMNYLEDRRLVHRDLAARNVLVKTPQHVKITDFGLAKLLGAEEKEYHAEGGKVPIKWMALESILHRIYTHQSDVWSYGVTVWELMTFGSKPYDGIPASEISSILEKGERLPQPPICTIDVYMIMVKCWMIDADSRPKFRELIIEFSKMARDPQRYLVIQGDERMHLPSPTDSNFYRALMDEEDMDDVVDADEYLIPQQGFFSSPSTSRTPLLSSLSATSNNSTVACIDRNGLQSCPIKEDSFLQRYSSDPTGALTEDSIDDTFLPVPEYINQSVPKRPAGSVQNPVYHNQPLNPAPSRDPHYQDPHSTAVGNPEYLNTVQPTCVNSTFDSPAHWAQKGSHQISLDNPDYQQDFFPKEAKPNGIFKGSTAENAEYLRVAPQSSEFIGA
Chain of EGFR Del19/C797S (P00533 with tags, fused parts or gaps DEL746-750/C797S): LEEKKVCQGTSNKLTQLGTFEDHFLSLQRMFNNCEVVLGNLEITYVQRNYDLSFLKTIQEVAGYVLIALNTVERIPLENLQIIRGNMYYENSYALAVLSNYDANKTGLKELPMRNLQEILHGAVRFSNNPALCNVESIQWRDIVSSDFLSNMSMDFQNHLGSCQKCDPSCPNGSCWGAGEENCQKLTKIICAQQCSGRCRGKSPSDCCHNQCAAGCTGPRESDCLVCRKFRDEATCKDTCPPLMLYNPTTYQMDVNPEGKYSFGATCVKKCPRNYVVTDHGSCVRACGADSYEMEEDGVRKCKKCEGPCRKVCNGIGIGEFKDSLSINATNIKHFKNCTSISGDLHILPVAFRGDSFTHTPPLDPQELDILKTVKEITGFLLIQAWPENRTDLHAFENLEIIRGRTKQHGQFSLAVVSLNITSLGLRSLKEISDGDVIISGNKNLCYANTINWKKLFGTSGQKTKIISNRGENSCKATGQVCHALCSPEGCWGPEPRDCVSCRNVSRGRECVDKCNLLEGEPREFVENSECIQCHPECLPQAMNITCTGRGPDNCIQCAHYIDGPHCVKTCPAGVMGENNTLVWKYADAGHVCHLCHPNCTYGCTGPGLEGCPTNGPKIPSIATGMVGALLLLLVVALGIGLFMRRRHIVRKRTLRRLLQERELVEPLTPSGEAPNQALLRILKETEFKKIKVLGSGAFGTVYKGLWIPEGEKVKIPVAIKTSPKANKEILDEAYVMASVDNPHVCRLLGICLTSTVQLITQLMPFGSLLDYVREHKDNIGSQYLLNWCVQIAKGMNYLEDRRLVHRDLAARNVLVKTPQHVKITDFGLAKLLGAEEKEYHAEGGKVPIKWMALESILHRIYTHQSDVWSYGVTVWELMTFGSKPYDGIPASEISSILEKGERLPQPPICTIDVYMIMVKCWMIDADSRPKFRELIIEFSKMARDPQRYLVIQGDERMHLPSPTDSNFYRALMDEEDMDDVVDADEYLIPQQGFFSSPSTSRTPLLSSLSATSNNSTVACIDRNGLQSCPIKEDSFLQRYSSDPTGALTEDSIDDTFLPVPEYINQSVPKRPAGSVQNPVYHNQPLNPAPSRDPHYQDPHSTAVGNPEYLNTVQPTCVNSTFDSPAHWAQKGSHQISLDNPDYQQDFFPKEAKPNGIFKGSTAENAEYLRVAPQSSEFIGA
Chain of EGFR Del19/T790M/C797S (P00533 with tags, fused parts or gaps DEL746-750/T790M/C797S): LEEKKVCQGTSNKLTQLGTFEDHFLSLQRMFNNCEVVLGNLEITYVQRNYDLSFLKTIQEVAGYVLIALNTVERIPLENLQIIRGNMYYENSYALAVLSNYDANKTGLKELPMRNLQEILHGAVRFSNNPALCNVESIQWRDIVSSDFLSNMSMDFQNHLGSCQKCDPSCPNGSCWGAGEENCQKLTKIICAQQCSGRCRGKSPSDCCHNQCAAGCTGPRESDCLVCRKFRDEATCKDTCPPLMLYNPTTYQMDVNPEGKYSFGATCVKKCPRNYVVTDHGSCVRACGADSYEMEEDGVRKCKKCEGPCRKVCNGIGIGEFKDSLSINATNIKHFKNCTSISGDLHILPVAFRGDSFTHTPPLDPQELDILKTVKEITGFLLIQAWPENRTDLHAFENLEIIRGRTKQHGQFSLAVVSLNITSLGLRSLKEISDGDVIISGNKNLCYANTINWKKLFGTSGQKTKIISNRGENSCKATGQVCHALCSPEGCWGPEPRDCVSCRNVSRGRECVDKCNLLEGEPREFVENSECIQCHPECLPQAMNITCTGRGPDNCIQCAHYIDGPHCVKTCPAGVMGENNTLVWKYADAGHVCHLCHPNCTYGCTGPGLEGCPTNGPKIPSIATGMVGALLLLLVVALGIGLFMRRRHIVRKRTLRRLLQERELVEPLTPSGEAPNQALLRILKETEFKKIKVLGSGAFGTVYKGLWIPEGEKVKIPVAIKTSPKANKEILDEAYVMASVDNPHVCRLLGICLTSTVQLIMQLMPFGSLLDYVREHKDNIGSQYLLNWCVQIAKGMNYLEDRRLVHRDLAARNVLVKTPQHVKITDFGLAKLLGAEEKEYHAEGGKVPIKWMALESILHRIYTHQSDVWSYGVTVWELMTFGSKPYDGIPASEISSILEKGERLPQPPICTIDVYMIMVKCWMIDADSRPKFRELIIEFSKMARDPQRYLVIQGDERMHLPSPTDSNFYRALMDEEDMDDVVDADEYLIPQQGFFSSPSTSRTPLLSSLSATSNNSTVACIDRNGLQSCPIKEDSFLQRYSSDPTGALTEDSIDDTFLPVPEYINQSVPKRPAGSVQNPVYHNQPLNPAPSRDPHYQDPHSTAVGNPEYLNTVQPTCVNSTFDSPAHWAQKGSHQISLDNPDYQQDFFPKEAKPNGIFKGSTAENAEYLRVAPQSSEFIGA
Chain of EGFR L858R/C797S (P00533 25-1210 C797S/L858R): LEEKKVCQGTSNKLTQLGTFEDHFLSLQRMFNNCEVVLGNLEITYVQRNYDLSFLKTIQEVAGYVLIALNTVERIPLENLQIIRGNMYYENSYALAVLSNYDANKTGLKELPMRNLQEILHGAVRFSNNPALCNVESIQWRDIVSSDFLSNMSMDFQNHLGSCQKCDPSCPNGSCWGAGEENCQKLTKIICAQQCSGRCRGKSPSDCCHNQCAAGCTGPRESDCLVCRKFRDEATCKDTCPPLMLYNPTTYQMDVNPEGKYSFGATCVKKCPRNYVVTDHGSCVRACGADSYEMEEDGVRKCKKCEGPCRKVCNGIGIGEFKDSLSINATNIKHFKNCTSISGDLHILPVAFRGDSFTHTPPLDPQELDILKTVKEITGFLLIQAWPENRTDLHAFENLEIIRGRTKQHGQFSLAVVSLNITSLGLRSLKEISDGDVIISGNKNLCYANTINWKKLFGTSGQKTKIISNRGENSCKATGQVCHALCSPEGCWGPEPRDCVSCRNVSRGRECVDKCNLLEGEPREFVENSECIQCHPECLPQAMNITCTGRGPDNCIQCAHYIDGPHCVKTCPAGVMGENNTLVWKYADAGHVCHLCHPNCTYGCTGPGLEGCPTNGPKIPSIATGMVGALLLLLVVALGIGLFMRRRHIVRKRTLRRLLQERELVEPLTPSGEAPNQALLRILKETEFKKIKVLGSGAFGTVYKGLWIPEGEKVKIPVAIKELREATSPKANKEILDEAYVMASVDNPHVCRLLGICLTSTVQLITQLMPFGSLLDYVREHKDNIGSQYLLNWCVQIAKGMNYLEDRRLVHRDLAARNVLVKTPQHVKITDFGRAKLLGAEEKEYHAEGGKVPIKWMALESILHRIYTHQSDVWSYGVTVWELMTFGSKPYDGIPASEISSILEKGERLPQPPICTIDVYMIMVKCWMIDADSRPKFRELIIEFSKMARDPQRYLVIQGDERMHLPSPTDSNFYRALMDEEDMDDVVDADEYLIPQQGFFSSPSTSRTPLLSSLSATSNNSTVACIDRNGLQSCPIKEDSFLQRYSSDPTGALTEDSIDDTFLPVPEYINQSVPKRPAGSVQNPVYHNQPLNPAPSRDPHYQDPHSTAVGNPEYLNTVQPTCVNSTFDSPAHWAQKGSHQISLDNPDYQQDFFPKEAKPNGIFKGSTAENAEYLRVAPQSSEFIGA

For `O=S(=O)(C1CC1)n1cc(-c2nccc(Nc3cc(N4CCCC(O)C4)c(C#Cc4cnn(C5CCOCC5)c4)cn3)n2)cn1` (stereo not drawn) [Example 99, 1-(2-((2-(1-(Cyclopropylsulfonyl)-1H-pyrazol-4-yl)pyrimidin-4-yl)amino)-5-((1-(tetrahydro-2H-pyran-4-yl)-1H-pyrazol-4-yl)ethynyl)pyridin-4-yl)piperidin-3-ol], the IC50 is 14 nM at EGFR Del19/C797S (setting [1]); 10.4 nM at EGFR Del19/C797S (setting [2]); 3 nM against EGFR L858R/T790M/C797S (setting [3]); 0.8 nM on EGFR L858R/T790M/C797S (setting [4]); over 10000 nM against EGFR wildtype (WT) (IC50 WT (nM), 100 μM ATP); 41.7 nM on EGFR wildtype (WT) (setting [5]). The IC50 on EGFR Del19/T790M/C797S (setting [6]) is 0.7 nM; at EGFR Del19/T790M/C797S (setting [7]), 0.7 nM; against EGFR L858R/C797S (setting [8]), 58.1 nM; at EGFR L858R/C797S (setting [9]), 4.2 nM.

As for `Cn1cc(C#Cc2cnc(Nc3ccnc(-c4cnn(S(=O)(=O)C5CC5)c4)n3)cc2N2CCCC(CO)C2)cn1` (stereo not drawn) [Example 9, (1-(2-((2-(1-(Cyclopropylsulfonyl)-1H-pyrazol-4-yl)pyrimidin-4-yl)amino)-5-((1-methyl-1H-pyrazol-4-yl)ethynyl)pyridin-4-yl)piperidin-3-yl)methanol], the IC50 against EGFR Del19/C797S (setting [1]) is 3.8 nM; at EGFR Del19/C797S (setting [2]) it was 2.8 nM; at EGFR L858R/T790M/C797S (setting [3]), 1.1 nM; at EGFR L858R/T790M/C797S (setting [4]), 0.4 nM; against EGFR wildtype (WT) (IC50 WT (nM), 100 μM ATP) it was over 10000 nM; on EGFR wildtype (WT) (setting [5]), 52.8 nM. Moreover, the IC50 against EGFR Del19/T790M/C797S (setting [6]) was found to be 1.9 nM; at EGFR Del19/T790M/C797S (setting [7]) it was 0.7 nM; at EGFR L858R/C797S (setting [8]) it was 27.5 nM; at EGFR L858R/C797S (setting [9]), 2.2 nM.

Regarding `CC1(O)CCN(c2cc(Nc3ccnc(-c4cnn(S(=O)(=O)C5CC5)c4)n3)ncc2C#CC2CC3CCC2O3)CC1` (stereo not drawn) [Example 424, 1-(5-((7-Oxabicyclo[2.2.1]heptan-2-yl)ethynyl)-2-((2-(1-(cyclopropylsulfonyl)-1H-pyrazol-4-yl)pyrimidin-4-yl)amino)pyridin-4-yl)-4-methylpiperidin-4-o 1], the IC50 at EGFR Del19/C797S (setting [1]) came out at 2.4 nM; at EGFR Del19/C797S (Km ATP, read-out: IC50 Del19/C797S (nM), Km ATP), 2 nM; at EGFR L858R/T790M/C797S (setting [3]), 0.3 nM; on EGFR L858R/T790M/C797S (Km ATP, read-out: IC50 L858R/T790M/C797S (nM), Km ATP), 0.2 nM; against EGFR wildtype (WT) (IC50 WT (nM), 100 μM ATP) it was 5450 nM; at EGFR wildtype (WT) (Km ATP, read-out: IC50 WT (nM), Km ATP) it was 8.8 nM. In addition, the IC50 against EGFR Del19/T790M/C797S (setting [6]) turned out to be 0.2 nM; on EGFR Del19/T790M/C797S (Km ATP, read-out: IC50 Del19/T790M/C797S (nM), Km ATP) it was 0.3 nM; against EGFR L858R/C797S (setting [8]), 47.7 nM; at EGFR L858R/C797S (Km ATP, read-out: IC50 L858R/C797S (nM), Km ATP) it was 1.9 nM.

As for `CC1(CO)CCN(c2cc(Nc3ccnc(-c4cnn(S(=O)(=O)C5CC5)c4)n3)ncc2C#Cc2cnn(CC3CCOC3)c2)CC1` (stereo not drawn) [Example 243, (1-(2-((2-(1-(Cyclopropylsulfonyl)-1H-pyrazol-4-yl)pyrimidin-4-yl)amino)-5-((1-((tetrahydrofuran-3-yl)methyl)-1H-pyrazol-4-yl)ethynyl)pyridin-4-yl)-4-methylpiperidin-4-yl)methanol], the IC50 on EGFR Del19/C797S (ATP at Km, read-out: IC50 Del19/C797S (nM), Km ATP) came out at 0.8 nM; on EGFR Del19/C797S (setting [1]), 0.7 nM; on EGFR L858R/T790M/C797S (ATP at Km, read-out: IC50 L858R/T790M/C797S (nM), Km ATP), 0.4 nM; on EGFR L858R/T790M/C797S (setting [3]), 1.8 nM; at EGFR wildtype (WT) (ATP at Km, read-out: IC50 WT (nM), Km ATP), 4.7 nM; on EGFR wildtype (WT) (IC50 WT (nM), 100 μM ATP), 2170 nM. For the same molecule, the IC50 stood at 0.9 nM at EGFR Del19/T790M/C797S (ATP at Km, read-out: IC50 Del19/T790M/C797S (nM), Km ATP); 1.4 nM on EGFR Del19/T790M/C797S (setting [6]); 0.9 nM at EGFR L858R/C797S (ATP at Km, read-out: IC50 L858R/C797S (nM), Km ATP); 14.7 nM against EGFR L858R/C797S (setting [8]).

With `CC1(CO)CCN(c2cc(Nc3ccnc(-c4cnn(S(=O)(=O)C5CC5)c4)n3)ncc2C#CCN2CCS(=O)(=O)CC2)CC1` [Example 289, 4-(3-(6-((2-(1-(Cyclopropylsulfonyl)-1H-pyrazol-4-yl)pyrimidin-4-yl)amino)-4-(4-(hydroxymethyl)-4-methylpiperidin-1-yl)pyridin-3-yl)prop-2-yn-1-yl)thiomorpholine 1,1-dioxide], the IC50 came out at 3 nM at EGFR Del19/C797S (setting [1]); 0.9 nM on EGFR L858R/T790M/C797S (setting [3]); 8440 nM on EGFR wildtype (WT) (IC50 WT (nM), 100 μM ATP); 0.2 nM at EGFR Del19/T790M/C797S (setting [6]); 23.1 nM against EGFR L858R/C797S (setting [8]).

For the origin of these results see patent publication US11981658B2, “Substituted aminopyridine compounds as EGFR inhibitors” (YUHAN CORPORATION, priority 2021, dated 2024).
